# Measurements as given in patent US20230123334A1, “AMINO LIPID COMPOUND, PREPARATION METHOD THEREFOR, AND APPLICATION THEREOF” (SHENZHEN SHENXIN BIOTECHNOLOGY CO., LTD., priority 2020, published 2023).
# Tests used:
# [1] = system: HEK293 cells; assay: Preliminary screening as DNA vectors, GFP transfection of HEK293 cells; assay type: cell-based; conditions: HEK293 cells; lipid/DOPE liposome with 75 ng plasmid DNA (psin-EGFP-IRES-Puro); number of cells expressing GFP divided by total number of nuclei (Hoechst)
# Method in brief: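 First, amino lipid and DOPE were vortexed in sodium acetate buffer (pH 5.6) to form liposomes. Next, these were held with 75 ng EGFP plasmid at room temperature for 30 min. Finally, HEK293 cells were added, cultured at 37° C., Hoechst-stained, and GFP+/total nuclei scored by imaging.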
# [2] = system: HEK293 cells; assay: Preliminary screening as mRNA vectors, EGFP mRNA transfection of HEK293 cells; assay type: cell-based; conditions: HEK293 cells, 96-well plates, EGFP mRNA 50 ng per well; percentage of GFP fluorescent cells relative to total number of cells (Hoechst)
# Method in brief: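 Screening format: EGFP mRNA transfection (50 ng/well) into HEK293 in 10% FBS-supplemented DMEM. Percent green fluorescent cells, normalised to Hoechst nuclear count, gave the value; Lipofectamine2000 was the reference transfectant.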
SMILES,Absolute DNA transfection efficiency in HEK293 cells [1] [%],Absolute mRNA transfection efficiency in HEK293 cells [2] [%]
CCCCCCCCCCCCCNc1nc(NCCCCCC)nc(NCCCN(C)C)n1 [Compound N6N13D6],0.1,0.1
CCCCCCCCCCCCCNc1nc(NCCCCCC)nc(NCCN(CC)CC)n1 [Compound N6N13D7],0.1,0.9
CCCCCCCCCCCCCNc1nc(NCCCCCC)nc(NCCCN2CCOCC2)n1 [Compound N6N13D8],0.0,0.0
CCCCCCCCCCCCCNc1nc(NCCCCCC)nc(NCCCN2CCN(C)CC2)n1 [Compound N6N13D9],0.0,0.0
CCCCCCCCCCCCCNc1nc(NCCCCCC)nc(NCC2CCN(C)CC2)n1 [Compound N6N13D10],0.0,0.0
CCCCCCCCCCCCCCCNc1nc(NCCCCCC)nc(NCCN(C)C)n1 [Compound N6N15D1],0.0,0.0
CCCCCCCCCCCCCCCNc1nc(NCCCCCC)nc(NCCN2CCOCC2)n1 [Compound N6N15D2],0.0,0.1
CCCCCCCCCCCCCCCNc1nc(NCCCCCC)nc(NCCN2CCCC2)n1 [Compound N6N15D3],0.6,0.3
CCCCCCCCCCCCCCCNc1nc(NCCCCCC)nc(NCCN2CCCCC2)n1 [Compound N6N15D4],0.1,0.0
CCCCCCCCCCCCCCCNc1nc(NCCCCCC)nc(NCCN2CCN(C)CC2)n1 [Compound N6N15D5],0.0,0.0
CCCCCCCCCCCCCCCNc1nc(NCCCCCC)nc(NCCCN(C)C)n1 [Compound N6N15D6],0.3,0.3
CCCCCCCCCCCCCCCNc1nc(NCCCCCC)nc(NCCN(CC)CC)n1 [Compound N6N15D7],0.0,0.0
CCCCCCCCCCCCCCCNc1nc(NCCCCCC)nc(NCCCN2CCOCC2)n1 [Compound N6N15D8],0.3,0.0
CCCCCCCCCCCCCCCNc1nc(NCCCCCC)nc(NCCCN2CCN(C)CC2)n1 [Compound N6N15D9],0.1,0.0
CCCCCCCCCCCCCCCNc1nc(NCCCCCC)nc(NCC2CCN(C)CC2)n1 [Compound N6N15D10],0.2,0.7
CCCCCCCCCCCCCCCCNc1nc(NCCCCCC)nc(NCCN(C)C)n1 [Compound N6N16D1],0.4,0.0
CCCCCCCCCCCCCCCCNc1nc(NCCCCCC)nc(NCCN2CCOCC2)n1 [Compound N6N16D2],0.0,0.1
CCCCCCCCCCCCCCCCNc1nc(NCCCCCC)nc(NCCN2CCCC2)n1 [Compound N6N16D3],0.7,2.8
CCCCCCCCCCCCCCCCNc1nc(NCCCCCC)nc(NCCN2CCCCC2)n1 [Compound N6N16D4],0.0,0.0

SMILES,Absolute DNA transfection efficiency in HEK293 cells [1] [%],Absolute mRNA transfection efficiency in HEK293 cells [2] [%]
CCCCCCCCCCCCCCCCNc1nc(NCCCCCC)nc(NCCN2CCN(C)CC2)n1 [Compound N6N16D5],0.0,0.1
CCCCCCCCCCCCCCCCNc1nc(NCCCCCC)nc(NCCCN(C)C)n1 [Compound N6N16D6],0.2,0.4
CCCCCCCCCCCCCCCCNc1nc(NCCCCCC)nc(NCCN(CC)CC)n1 [Compound N6N16D7],0.0,0.5
CCCCCCCCCCCCCCCCNc1nc(NCCCCCC)nc(NCCCN2CCOCC2)n1 [Compound N6N16D8],0.6,0.0
CCCCCCCCCCCCCCCCNc1nc(NCCCCCC)nc(NCCCN2CCN(C)CC2)n1 [Compound N6N16D9],0.0,0.0
CCCCCCCCCCCCCCCCNc1nc(NCCCCCC)nc(NCC2CCN(C)CC2)n1 [Compound N6N16D10],0.7,0.8
CCCCCCCCCCCCCCCCCCNc1nc(NCCCCCC)nc(NCCN(C)C)n1 [Compound N6N18D1],1.1,3.9
CCCCCCCCCCCCCCCCCCNc1nc(NCCCCCC)nc(NCCN2CCOCC2)n1 [Compound N6N18D2],0.6,0.9
CCCCCCCCCCCCCCCCCCNc1nc(NCCCCCC)nc(NCCN2CCCC2)n1 [Compound N6N18D3],3.4,3.9
CCCCCCCCCCCCCCCCCCNc1nc(NCCCCCC)nc(NCCN2CCCCC2)n1 [Compound N6N18D4],2.0,0.2
CCCCCCCCCCCCCCCCCCNc1nc(NCCCCCC)nc(NCCN2CCN(C)CC2)n1 [Compound N6N18D5],0.6,0.0
CCCCCCCCCCCCCCCCCCNc1nc(NCCCCCC)nc(NCCCN(C)C)n1 [Compound N6N18D6],1.8,0.1
CCCCCCCCCCCCCCCCCCNc1nc(NCCCCCC)nc(NCCN(CC)CC)n1 [Compound N6N18D7],0.9,0.3
CCCCCCCCCCCCCCCCCCNc1nc(NCCCCCC)nc(NCCCN2CCOCC2)n1 [Compound N6N18D8],0.3,0.0
CCCCCCCCCCCCCCCCCCNc1nc(NCCCCCC)nc(NCCCN2CCN(C)CC2)n1 [Compound N6N18D9],0.1,0.2
CCCCCCCCCCCCCCCCCCNc1nc(NCCCCCC)nc(NCC2CCN(C)CC2)n1 [Compound N6N18D10],0.4,0.1
CCCCCCCNc1nc(NCCCCCCC)nc(NCCN(C)C)n1 [Compound N7N7D1],0.0,0.0
CCCCCCCNc1nc(NCCCCCCC)nc(NCCN2CCOCC2)n1 [Compound N7N7D2],0.0,0.0
CCCCCCCNc1nc(NCCCCCCC)nc(NCCN2CCCC2)n1 [Compound N7N7D3],0.0,0.0
